Where “and” joins values, the source holds several entries; their conditions need not be identical. Identical values can stand only once.
Legend:
[1] = molecular target: GPIIb/IIIa (Homo sapiens, UniProt P05106+P08514); assay: In vitro solid phase purified glycoprotein IIb/IIIa binding assay (biotinylated fibrinogen binding); details: for inhibition at 50 µM: read-out: Fibrinogen Binding % Inh. (50 µM)
Method: IN VITRO SOLID PHASE PURIFIED GLYCOPROTEIN IIB/IIIA BINDING ASSAY.
The plate is covered and incubated overnight at 4°C. The GPIIb/IIa solution is discarded and 150 µl of 5% BSA is added and incubated at RT for 1-3 h. The plate is washed extensively with modified Tyrodes buffer. Biotinylated fibrinogen (25 µl/well) at 2 x final concentration is added to the wells that contain the test compounds (25 µl/well). The plate is covered and incubated at RT for 2-4 h. Twenty minutes prior to incubation completion, one drop of Reagent A (Vecta Stain ABC Horse Radish Peroxidase kit, Vector Laboratories, Inc.) and one drop Reagent B are added with mixing to 5 mL modified Tyrodes buffer mix and let stand. The ligand solution is discarded and the plate washed (5 x 200 µl/well) with modified Tyrodes buffer. Vecta Stain HRP-Biotin-Avidin reagent (50 µl/well, as prepared above) is added and incubated at RT for 15 min. The Vecta Stain solution is discarded and the wells washed (5 x 200 µl/well) with modified Tyrodes buffer. Developing buffer (10 mL of 50 mM citrate/phosphate buffer @ pH 5.3, 6 mg o-phenylenediamine, 6 µl 30% H2O2; 50 µl/well) is added and incubated at RT for 3-5 min, and then 2N H2SO4 (50 µl/well) is added. The absorbance is read at 490 nm.

[2] = system: collagen- or ADP-induced ex vivo platelet aggregation; assay: Ex vivo dog study (platelet aggregation, hemodynamics, bleeding time, coagulation, cell counts); format: in vivo, dogs
Method: Adult mongrel dogs (8-13 kg) were anesthetized with sodium pentobarbital (35 mg/kg, i.v.) and artificially respired. Arterial blood pressure and heart rate were measured using a Millar catheter-tip pressure transducer inserted in a femoral artery. Another Millar transducer was placed in the left ventricle (LV) via a carotid artery to measure LV end diastolic pressure and indices of myocardial contractility. A lead II electrocardiogram was recorded from limb electrodes. Catheters were placed in a femoral artery and vein to sample blood and infuse drugs, respectively. Responses were continuously monitored using a Modular Instruments data aquisition system.
Arterial blood samples (5-9 ml) were withdrawn into tubes containing 3.8% sodium citrate to prepare platelet rich plasma (PRP) and to determine effects on coagulation parameters: prothrombin time (PT) and activated partial thromboplastin time (APTT). Separate blood samples (1.5 ml) were withdrawn in EDTA to determine hematocrit and cell counts (platelets, RBC's and white cells). Template bleeding times were obtained from the buccal surface using a symplate incision devise and Whatman filter paper.
Aggregation of PRP was performed using a BioData aggregometer. Aggregation of whole blood used a Chronolog impedance aggregometer. PT and APTT were determined on either a BioData or ACL 3000+ coagulation analyser. Cells were counted with a Sysmex K-1000.
Compounds were solubilized in a small volume of dimethylformamide (DMF) and diluted with saline to a final concentration of 10% DMF. Compounds were administered by the intravenous route with a Harvard infusion pump. Doses was administered over a 15 min interval at a constant rate of 0.33 ml/min. Data were obtained after each dose and in 30 min intervals following the end of drug administration. Oral doses were administered as aqueous solutions via syringe.

[3] = system: gel-filtered platelets; assay: In vitro inhibition of thrombin-induced gel-filtered platelet aggregation; format: cell-based; details: Homo sapiens; for inhibition at 50 µM: read-out: Platelet Aggregation % Inh. (50µM)
Method: IN VITRO INHIBITION OF THROMBIN-INDUCED GEL-FILTERED PLATELET AGGREGATION ASSAY.
The percentage of platelet aggregation is calculated as an increase in light transmission of compound-treated platelet concentrate vs. control-treated platelet concentrate. Human blood is obtained from drug free, normal donors into tubes containing 0.13M sodium citrate. Platelet rich plasma (PRP) is collected by centrifugation of whole blood at 200 x g for 10 min at 25°C. The PRP (5 mL) is gel filtered through Sepharose 2B (bed volume 50 mL), and the platelet count is adjusted to 2x10^7 platelets per sample. The following constituents are added to a siliconized cuvette: concentrated platelet filtrate and Tyrode's buffer (0.14M NaCl, 0.0027MKCl, 0.012M NaHCO3, 0.76 mM Na2HPO4, 0.0055M glucose, 2 mg/mL BSA and 5.0mM HEPES @ pH 7.4) in an amount equal to 350 µl, 50 µl of 20 mM calcium and 50 µl of the test compound. Aggregation is monitored in a BIODATA aggregometer for the 3 min following the addition of agonist (thrombin 50 µl of 1 unit/mL).

[4] = system: thrombus formation; assay: Canine arteriovenous shunt model of thrombosis; format: in vivo
Method: For instance, compound 16 inhibits thrombus formation at 10, 30, and 100 µg/kg/min cumulative doses by iv infusion (75%, 37%, 12% of thrombus weight vs. vehicle control, respectively). Compound 18 inhibits thrombus formation at 3, 10, and 30 µg/kg/min cumulative doses by iv infusion (82%, 41%, 12% of thrombus weight vs. vehicle control, respectively).

GPIIb/IIIa, sequence (P08514 32-887 limits assumed): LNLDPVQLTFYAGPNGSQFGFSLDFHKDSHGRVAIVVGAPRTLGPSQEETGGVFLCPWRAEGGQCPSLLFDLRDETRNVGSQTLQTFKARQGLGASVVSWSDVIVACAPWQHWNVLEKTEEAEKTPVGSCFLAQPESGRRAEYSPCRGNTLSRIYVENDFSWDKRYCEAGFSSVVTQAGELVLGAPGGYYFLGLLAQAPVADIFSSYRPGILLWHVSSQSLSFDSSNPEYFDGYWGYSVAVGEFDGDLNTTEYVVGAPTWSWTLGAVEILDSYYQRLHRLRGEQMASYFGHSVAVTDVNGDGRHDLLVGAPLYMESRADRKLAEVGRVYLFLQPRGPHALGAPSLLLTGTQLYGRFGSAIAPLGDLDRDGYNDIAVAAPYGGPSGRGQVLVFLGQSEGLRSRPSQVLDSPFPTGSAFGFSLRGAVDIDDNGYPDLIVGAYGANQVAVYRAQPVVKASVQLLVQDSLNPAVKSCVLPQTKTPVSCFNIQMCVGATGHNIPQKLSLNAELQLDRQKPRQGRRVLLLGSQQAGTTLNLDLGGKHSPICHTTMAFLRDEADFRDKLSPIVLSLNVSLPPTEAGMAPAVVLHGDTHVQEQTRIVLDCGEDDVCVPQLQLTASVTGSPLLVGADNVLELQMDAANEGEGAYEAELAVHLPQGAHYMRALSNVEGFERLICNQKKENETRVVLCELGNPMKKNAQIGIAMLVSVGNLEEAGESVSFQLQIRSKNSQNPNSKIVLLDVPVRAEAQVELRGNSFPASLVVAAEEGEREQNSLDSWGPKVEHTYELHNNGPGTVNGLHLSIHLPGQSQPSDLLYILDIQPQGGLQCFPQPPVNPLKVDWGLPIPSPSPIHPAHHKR
GPIIb/IIIa, sequence (P08514 891-1039 partner limits assumed): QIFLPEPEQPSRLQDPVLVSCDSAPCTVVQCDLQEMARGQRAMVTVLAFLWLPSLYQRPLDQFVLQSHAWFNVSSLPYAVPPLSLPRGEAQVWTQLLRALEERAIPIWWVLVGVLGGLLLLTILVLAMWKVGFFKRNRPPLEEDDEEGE
GPIIb/IIIa, sequence (P05106 27-788): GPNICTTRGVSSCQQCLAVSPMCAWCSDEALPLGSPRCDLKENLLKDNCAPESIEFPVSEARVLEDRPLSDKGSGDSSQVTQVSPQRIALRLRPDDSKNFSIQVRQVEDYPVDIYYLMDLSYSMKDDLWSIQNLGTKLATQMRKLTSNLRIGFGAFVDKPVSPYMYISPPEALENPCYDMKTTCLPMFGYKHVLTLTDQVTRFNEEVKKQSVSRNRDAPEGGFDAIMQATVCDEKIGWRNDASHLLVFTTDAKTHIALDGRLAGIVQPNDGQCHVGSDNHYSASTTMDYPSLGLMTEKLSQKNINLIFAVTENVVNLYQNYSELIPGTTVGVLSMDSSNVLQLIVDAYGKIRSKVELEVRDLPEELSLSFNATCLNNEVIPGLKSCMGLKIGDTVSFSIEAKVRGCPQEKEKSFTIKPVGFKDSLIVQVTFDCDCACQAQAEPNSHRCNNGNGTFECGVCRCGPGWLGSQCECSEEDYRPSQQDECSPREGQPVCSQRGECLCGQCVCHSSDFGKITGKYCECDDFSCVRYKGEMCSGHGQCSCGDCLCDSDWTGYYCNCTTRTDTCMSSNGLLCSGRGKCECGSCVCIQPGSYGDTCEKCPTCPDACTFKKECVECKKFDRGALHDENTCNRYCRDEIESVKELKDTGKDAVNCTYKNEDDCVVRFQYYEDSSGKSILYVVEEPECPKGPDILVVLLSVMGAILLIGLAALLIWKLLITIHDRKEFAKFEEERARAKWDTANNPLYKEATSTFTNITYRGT

IC50 [1]	inhibition at 50 µM [1]	IC50 [3]	SMILES	inhibition at 50 µM [3]	Duration of >50% inhibition of collagen-induced ex vivo platelet aggregation ([2]; intravenous dosing 0.3 mpk)	Duration of >50% inhibition of collagen-induced ex vivo platelet aggregation ([2]; oral dosing 3 mpk)	other results
9.1 nM	100%	1900 nM	CN1CCN(CCC(=O)N2CCCC(C(=O)NC(CC(=O)O)c3cnc4ccccc4c3)C2)CC1 (stereo not drawn) [Compound 15, N-3-(4-N-Methyl-piperazinepropionyl)-nipecotyl-[3-amino-3-(3-quinolinyl)]propionic acid]	92.2%			Duration of >50% inhibition of collagen- or ADP-induced ex vivo platelet aggregation ([2]; intravenous dosing 1 mpk): 30 min; Duration of >50% inhibition of collagen- or ADP-induced ex vivo platelet aggregation ([2]; oral dosing 10 mpk): 120 min
0.5 nM	100%	28 nM	O=C(O)CC(NC(=O)C1CCCN(C(=O)CCC2CCNCC2)C1)c1ccc2c(c1)OCO2 [Compound 16, N-3-(4-Piperidinepropionyl)-R-(-)-nipecotyl-[(S)-3-amino-3-(3,4-methylenedioxyphenyl)]propionic acid]	94%			% of thrombus weight vs. vehicle control ([4]; 10 µg/kg/min cumulative dose by iv infusion): 75%; % of thrombus weight vs. vehicle control ([4]; 30 µg/kg/min cumulative dose by iv infusion): 37%; % of thrombus weight vs. vehicle control ([4]; 100 µg/kg/min cumulative dose by iv infusion): 12%; Duration of >50% inhibition of collagen- or ADP-induced ex vivo platelet aggregation ([2]; intravenous dosing 0.1 mpk): 60 min; Duration of >50% inhibition of collagen- or ADP-induced ex vivo platelet aggregation ([2]; oral dosing 1 mpk): 60 min; Duration of >50% inhibition of collagen- or ADP-induced ex vivo platelet aggregation ([2]; oral dosing 3 mpk): >180 min
	100%	60 nM	O=C(O)C[C@H](NC(=O)[C@@H]1CCCN(C(=O)CCC2CCNCC2)C1)c1cccnc1 [Compound 21, N-3-(4-Piperidinepropionyl)-R-(-)-nipecotyl-[(S)-3-amino-3-(3-pyridyl)] propionic acid]	100%			Duration of >50% inhibition of collagen- or ADP-induced ex vivo platelet aggregation ([2]; intravenous dosing 0.3 mpk): 150 min; Duration of >50% inhibition of collagen- or ADP-induced ex vivo platelet aggregation ([2]; oral dosing 1 mpk): 180 min
	100%	46 nM	COc1cccc(NC(=O)N[C@@H](CNC(=O)[C@@H]2CCCN(C(=O)CCC3CCNCC3)C2)C(=O)O)c1 [Compound 22, N-3-(4-Piperidinepropionyl)-R-(-)nipecotyl-[(S)-2-(3-methoxyanilino)carbonylamino-3-amino]propionic acid]	94%	180 min	60 min	
	100%	27 nM	O=C(N[C@@H](CNC(=O)[C@@H]1CCCN(C(=O)CCC2CCNCC2)C1)C(=O)O)OCc1ccccc1 [Compound 23, N-3-(4-Piperidinepropionyl)-R-(-)nipecotyl-[(S)-2-benzyloxycarbonylamino-3-amino]propionic acid]	97%		150 min	Duration of >50% inhibition of collagen-induced ex vivo platelet aggregation ([2]; intravenous dosing 0.1 mpk): 60 min; Duration of >50% inhibition of collagen-induced ex vivo platelet aggregation ([2]; oral dosing 1 mpk): 180 min
0.4 nM	100%	18 nM	O=C(N[C@@H](CNC(=O)[C@@H]1CCCN(C(=O)CCC2CCNCC2)C1)C(=O)O)OCc1cccc(Cl)c1 [Compound 24, N-3-(4-Piperidinepropionyl)-R-(-)nipecotyl-[(S)-2-(3-chlorobenzyloxy)carbonylamino-3-amino]propionic acid]	100%	90 min	120 min	
	100%	7 nM	O=C(NC[C@H](NS(=O)(=O)Cc1ccccc1)C(=O)O)[C@@H]1CCCN(C(=O)CCC2CCNCC2)C1 [Compound 25, N-3-(4-Piperidinepropionyl)-R-(-)nipecotyl-[(S)-2-benzylsulfonylamino-3-amino]propionic acid]	97%	30 min	60 min	
	100%	16 nM	COc1cc(NC(=O)N[C@@H](CNC(=O)[C@@H]2CCCN(C(=O)CCC3CCNCC3)C2)C(=O)O)cc(OC)c1 [Compound 26, N-3-(4-Piperidinepropionyl)-R-(-)nipecotyl-[(S)-2-(3,5-dimethoxyanllino)carbonylamino-3-amino]propionic acid]	97%		60 min	
	100%	450 nM	O=C(O)C[C@H](NC(=O)[C@@H]1CCCN(C(=O)N2CCC(C3CCNCC3)CC2)C1)c1cccnc1 [Compound 27, N-[(4,4'-Bipiperidin-1-yl-)carbonyl]-R-(-)-nipecotyl-[(S)-3-amino-3-(3-pyridyl)] propionic acid]	100%	60 min	120 min	
	100%	170 nM	O=C(Nc1ccc2ccccc2c1)N[C@@H](CNC(=O)[C@@H]1CCCN(C(=O)CCC2CCNCC2)C1)C(=O)O [Compound 28, N-3-(4-Piperidinepropionyl)-R-(-)nipecotyl-[(S)-2-(2-naphthylamino)carbonylamino-3-amino]propionic acid]	100%		120 min	
	100%	190 nM	O=C(NCCc1ccccc1)N[C@@H](CNC(=O)[C@@H]1CCCN(C(=O)CCC2CCNCC2)C1)C(=O)O [Compound 30, N-3-(4-Piperidinepropionyl)-R-(-)nipecotyl-[(S)-2-(2-phenethylamino)carbonylamino-3-amino]propionic acid]	100%	105 min	180 min	
	100%	45 nM	Cc1ccc([C@H](CC(=O)O)NC(=O)[C@@H]2CCCN(C(=O)CCC3CCNCC3)C2)cn1 [Compound 31, N-3-(4-Piperidinepropionyl)-R-(-)nipecotyl-[(S)-3-amino-3-(6-methyl-3-pyridyl)]propionic acid]	100%			Duration of >50% inhibition of collagen-induced ex vivo platelet aggregation ([2]; intravenous dosing 0.3 mpk, 0.3 mg/kg): 120 min and 60 min; Duration of >50% inhibition of collagen-induced ex vivo platelet aggregation ([2]; oral dosing 3 mpk, 3 mg/kg): >180 min and 180 min

SMILES	IC50 [1]	inhibition at 50 µM [1]	IC50 [3]	inhibition at 50 µM [3]	Duration of >50% inhibition of collagen-induced ex vivo platelet aggregation ([2]; intravenous dosing 0.3 mpk)	Duration of >50% inhibition of collagen-induced ex vivo platelet aggregation ([2]; oral dosing 3 mpk)	other results
CC(C)(C)C#CC(CC(=O)O)NC(=O)C1CCCN(C(=O)CCC2CCNCC2)C1 (single isomer, unassigned) [Compound 19]	21 nM	99%	79 nM	92.1%			Duration of >50% inhibition of collagen- or ADP-induced ex vivo platelet aggregation ([2]; intravenous dosing 1 mpk): 30 min; Duration of >50% inhibition of collagen- or ADP-induced ex vivo platelet aggregation ([2]; oral dosing 10 mpk): 90 min

Reference: patent EP1184374A1, “Carboxamide derivatives of pyrrolidine, piperidine and hexahydroazepine for the treatment of thrombosis disorders” (ORTHO PHARMACEUTICAL CORPORATION, priority 1996, dated 1997)
